Measured values taken from patent US20220395465A1, “STING AGONIST COMPRISING EXOSOMES COMBINED WITH IL-12 DISPLAYING EXOSOMES FOR TREATING A TUMOUR” (CODIAK BIOSCIENCES, INC., priority 2019, published 2022).

Tested on: MC38 tumor
Experiment: MC38 mouse tumor model, tumor growth, complete responses and rechallenge
Format: in vivo, mice
Details: equivalent IL-12 dose
Description: Potency was assessed in vitro using human PBMCs or murine splenocytes and in vivo using mouse subcutaneous tumor models. Local versus systemic pharmacology was determined with intratumoral injection in mice and subcutaneous injection in monkeys. All studies were benchmarked against recombinant IL-12 (rIL-12).
In addition, exoIL-12 administration led to enhanced intratumoral IFN-gamma AUC by about 4-fold as compared to recombinant IL-12 (FIG. 7B). […] This correlated with dose-dependent increases in tumor antigen-specific CD8+ T cells, which increased nearly 4-fold in exoIL-12 treated mice (FIG. 7E).
Suppression of tumor growth was again observed following MC38 rechallenge (FIG. 7D).

**Q.** With “rIL-12: recombinant IL-12, benchmark in all studies” as the substance, how does the “complete responses (share of mice)” value read?
**A.** 0%
